Data published in publication PMC11111408, “Concurrent inhibition of oncogenic and wild-type RAS-GTP for cancer therapy” (Nature, 2024).

Test system: PRISM DNA-barcoded human tumour cell lines
Experiment: PRISM pooled cell viability assay;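 on PRISM AUC: 8 threefold dilutions from 10 µM with 5 days of exposure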
Assay type: cell-based
Design: AUC (PRISM viability) / AUC (PRISM): unit not given beside the values
Conditions: for AUC (PRISM viability): WT; for PRISM AUC: KRAS MUT
Procedure: Cells were then lysed in TCL mRNA lysis buffer, and then PCR with reverse transcription was performed. Detection of the barcodes and univariate and multivariate analysis was then performed as previously described. Data analysis is described in the Supplementary Methods. Up-to-date code for our analysis is at the github link: https://github.com/cmap/dockerized_mts.
For every gene with non-silent mutations in at least four cell-lines, we compared the AUC values between cells with and without those mutations using a t-test. This analysis was carried out for: (i) the full dataset; (ii) excluding cell lines with non-silent KRAS mutations; and (iii) excluding cell lines that have either KRAS or NRAS non-silent mutations.

CCn1c(-c2cc(N3CCN(C4CC4)CC3)cnc2[C@H](C)OC)c2c3cc(ccc31)-c1csc(n1)C[C@H](NC(=O)[C@H]1[C@@H]3COC[C@@H]31)C(=O)N1CCC[C@H](N1)C(=O)OCC(C)(C)C2 [RMC-7977]
AUC (PRISM viability) (HUG1N_STOMACH): 0.8055 | AUC (PRISM viability) (HUH1_LIVER): 0.7529 | AUC (PRISM viability) (HUH6_LIVER): 0.7376 | AUC (PRISM viability) (HUH7_LIVER): 0.8557 | AUC (PRISM viability) (HUH28_BILIARY_TRACT): 0.8029 | PRISM AUC (HUPT3_PANCREAS): 0.1666 | PRISM AUC (HUPT4_PANCREAS): 0.2071 | PRISM AUC (IALM_LUNG): 0.3346 | AUC (PRISM viability) (IGR1_SKIN): 0.9019 | AUC (PRISM viability) (IGR37_SKIN): 0.7982 | AUC (PRISM viability) (IGR39_SKIN): 0.9854 | AUC (PRISM viability) (IGROV1_OVARY): 0.7964 | AUC (PRISM viability) (IM95_STOMACH): 0.4996 | AUC (PRISM viability) (IPC298_SKIN): 0.1645 | AUC (PRISM viability) (ISHIKAWAHERAKLIO02ER_ENDOMETRIUM): 0.7979 | AUC (PRISM viability) (ISTMES2_PLEURA): 1 | AUC (PRISM viability) (J82_URINARY_TRACT): 0.7456 | AUC (PRISM viability) (JEKO1_HAEMATOPOIETIC_AND_LYMPHOID_TISSUE): 0.8585 | AUC (PRISM viability) (JHH1_LIVER): 0.2992 | AUC (PRISM viability) (JHH4_LIVER): 0.7822 | AUC (PRISM viability) (JHH5_LIVER): 0.337 | AUC (PRISM viability) (JHH6_LIVER): 0.6328 | AUC (PRISM viability) (JHH7_LIVER): 0.6689 | AUC (PRISM viability) (JHOC5_OVARY): 0.6127 | AUC (PRISM viability) (JHOM1_OVARY): 0.7183 | AUC (PRISM viability) (JHOS2_OVARY): 0.6659 | AUC (PRISM viability) (JHUEM2_ENDOMETRIUM): 0.722 | AUC (PRISM viability) (JIMT1_BREAST): 0.6067 | AUC (PRISM viability) (JJN3_HAEMATOPOIETIC_AND_LYMPHOID_TISSUE): 0.5546 | AUC (PRISM viability) (JL1_PLEURA): 0.8348 | AUC (PRISM viability) (JM1_HAEMATOPOIETIC_AND_LYMPHOID_TISSUE): 0.8697 | AUC (PRISM viability) (JMSU1_URINARY_TRACT): 0.7968 | AUC (PRISM viability) (JURKAT_HAEMATOPOIETIC_AND_LYMPHOID_TISSUE): 1 | AUC (PRISM viability) (JURLMK1_HAEMATOPOIETIC_AND_LYMPHOID_TISSUE): 0.263 | AUC (PRISM viability) (JVM3_HAEMATOPOIETIC_AND_LYMPHOID_TISSUE): 0.6896 | AUC (PRISM viability) (K029AX_SKIN): 0.9507 | AUC (PRISM viability) (K562_HAEMATOPOIETIC_AND_LYMPHOID_TISSUE): 0.4372 | AUC (PRISM viability) (KALS1_CENTRAL_NERVOUS_SYSTEM): 0.7464 | AUC (PRISM viability) (KARPAS299_HAEMATOPOIETIC_AND_LYMPHOID_TISSUE): 0.6122 | PRISM AUC (KARPAS620_HAEMATOPOIETIC_AND_LYMPHOID_TISSUE): 0.3529 | AUC (PRISM viability) (KATOIII_STOMACH): 0.4955 | AUC (PRISM viability) (KCL22_HAEMATOPOIETIC_AND_LYMPHOID_TISSUE): 0.4527 | AUC (PRISM viability) (KE37_HAEMATOPOIETIC_AND_LYMPHOID_TISSUE): 0.4418 | AUC (PRISM viability) (KE39_STOMACH): 0.6732 | AUC (PRISM viability) (KELLY_AUTONOMIC_GANGLIA): 0.7861 | PRISM AUC (KHM1B_HAEMATOPOIETIC_AND_LYMPHOID_TISSUE): 0.496 | AUC (PRISM viability) (KLE_ENDOMETRIUM): 0.8932 | AUC (PRISM viability) (KMBC2_URINARY_TRACT): 0.2167 | AUC (PRISM viability) (KMH2_HAEMATOPOIETIC_AND_LYMPHOID_TISSUE): 0.7624 | AUC (PRISM viability) (KMRC1_KIDNEY): 1 | AUC (PRISM viability) (KMRC3_KIDNEY): 0.8631 | AUC (PRISM viability) (KMRC20_KIDNEY): 0.5322 | AUC (PRISM viability) (KMS11_HAEMATOPOIETIC_AND_LYMPHOID_TISSUE): 0.6264 | AUC (PRISM viability) (KMS18_HAEMATOPOIETIC_AND_LYMPHOID_TISSUE): 0.2086 | AUC (PRISM viability) (KMS27_HAEMATOPOIETIC_AND_LYMPHOID_TISSUE): 0.3359 | AUC (PRISM viability) (KMS34_HAEMATOPOIETIC_AND_LYMPHOID_TISSUE): 0.4857 | AUC (PRISM viability) (KNS42_CENTRAL_NERVOUS_SYSTEM): 0.8285 | AUC (PRISM viability) (KNS60_CENTRAL_NERVOUS_SYSTEM): 0.8415 | AUC (PRISM viability) (KNS62_LUNG): 0.4354 | AUC (PRISM viability) (KNS81_CENTRAL_NERVOUS_SYSTEM): 0.5354 | PRISM AUC (KOPN8_HAEMATOPOIETIC_AND_LYMPHOID_TISSUE): 0.2801 | PRISM AUC (KP2_PANCREAS): 0.2975 | PRISM AUC (KP3_PANCREAS): 0.3778 | PRISM AUC (KP4_PANCREAS): 0.4423 | AUC (PRISM viability) (KS1_CENTRAL_NERVOUS_SYSTEM): 0.4806 | AUC (PRISM viability) (KU1919_URINARY_TRACT): 0.2273 | AUC (PRISM viability) (KURAMOCHI_OVARY): 1 | AUC (PRISM viability) (KYM1_SOFT_TISSUE): 0.3526 | AUC (PRISM viability) (KYO1_HAEMATOPOIETIC_AND_LYMPHOID_TISSUE): 0.2345 | AUC (PRISM viability) (KYSE30_OESOPHAGUS): 0.402 | AUC (PRISM viability) (KYSE70_OESOPHAGUS): 0.7015 | AUC (PRISM viability) (KYSE140_OESOPHAGUS): 0.5343 | AUC (PRISM viability) (KYSE150_OESOPHAGUS): 0.4708 | AUC (PRISM viability) (KYSE180_OESOPHAGUS): 0.5999 | AUC (PRISM viability) (KYSE270_OESOPHAGUS): 0.564 | PRISM AUC (KYSE410_OESOPHAGUS): 0.2588 | AUC (PRISM viability) (KYSE450_OESOPHAGUS): 0.34 | AUC (PRISM viability) (KYSE510_OESOPHAGUS): 0.4594 | AUC (PRISM viability) (KYSE520_OESOPHAGUS): 0.4602 | PRISM AUC (L33_PANCREAS): 0.3993 | AUC (PRISM viability) (L363_HAEMATOPOIETIC_AND_LYMPHOID_TISSUE): 0.6953 | AUC (PRISM viability) (LAMA84_HAEMATOPOIETIC_AND_LYMPHOID_TISSUE): 0.3291 | AUC (PRISM viability) (LCLC103H_LUNG): 0.6805 | AUC (PRISM viability) (LI7_LIVER): 0.4821 | AUC (PRISM viability) (LK2_LUNG): 0.4878 | AUC (PRISM viability) (LMSU_STOMACH): 0.6242 | AUC (PRISM viability) (LN18_CENTRAL_NERVOUS_SYSTEM): 0.6382 | AUC (PRISM viability) (LN229_CENTRAL_NERVOUS_SYSTEM): 0.6899 | AUC (PRISM viability) (LN382_CENTRAL_NERVOUS_SYSTEM): 0.6351 | AUC (PRISM viability) (LNCAPCLONEFGC_PROSTATE): 0.7528 | AUC (PRISM viability) (LNZ308_CENTRAL_NERVOUS_SYSTEM): 0.4353 | AUC (PRISM viability) (LOUNH91_LUNG): 0.4098 | PRISM AUC (LOVO_LARGE_INTESTINE): 0.4131 | AUC (PRISM viability) (LOXIMVI_SKIN): 1 | PRISM AUC (LS180_LARGE_INTESTINE): 0.2098 | AUC (PRISM viability) (LS411N_LARGE_INTESTINE): 1 | PRISM AUC (LS513_LARGE_INTESTINE): 0.2181 | PRISM AUC (LU99_LUNG): 0.2453 | AUC (PRISM viability) (LUDLU1_LUNG): 0.5495 | AUC (PRISM viability) (LXF289_LUNG): 0.5423 | AUC (PRISM viability) (M059K_CENTRAL_NERVOUS_SYSTEM): 0.9015 | AUC (PRISM viability) (MALME3M_SKIN): 0.9889 | AUC (PRISM viability) (MC116_HAEMATOPOIETIC_AND_LYMPHOID_TISSUE): 0.9825 | PRISM AUC (MCAS_OVARY): 0.3593 | AUC (PRISM viability) (MCF7_BREAST): 0.8582 | AUC (PRISM viability) (MDAMB175VII_BREAST): 0.5383 | PRISM AUC (MDAMB231_BREAST): 0.478 | AUC (PRISM viability) (MDAMB361_BREAST): 0.7391 | AUC (PRISM viability) (MDAMB435S_SKIN): 0.9518 | AUC (PRISM viability) (MDAMB436_BREAST): 0.9067 | AUC (PRISM viability) (MDAMB453_BREAST): 0.3963 | AUC (PRISM viability) (MDAMB468_BREAST): 0.5525 | AUC (PRISM viability) (MDST8_LARGE_INTESTINE): 0.7229 | AUC (PRISM viability) (MELHO_SKIN): 0.9921 | AUC (PRISM viability) (MELJUSO_SKIN): 0.3578 | AUC (PRISM viability) (MESSA_SOFT_TISSUE): 0.9559 | AUC (PRISM viability) (MEWO_SKIN): 0.6173 | AUC (PRISM viability) (MFE280_ENDOMETRIUM): 0.5252 | AUC (PRISM viability) (MFE296_ENDOMETRIUM): 0.9033 | AUC (PRISM viability) (MFE319_ENDOMETRIUM): 0.8155 | AUC (PRISM viability) (MG63_BONE): 0.7861 | AUC (PRISM viability) (MHHES1_BONE): 0.8525 | AUC (PRISM viability) (MHHNB11_AUTONOMIC_GANGLIA): 0.4191 | PRISM AUC (MIAPACA2_PANCREAS): 0.1568 | AUC (PRISM viability) (MKN1_STOMACH): 0.5983 | AUC (PRISM viability) (MKN7_STOMACH): 0.4769 | AUC (PRISM viability) (MKN45_STOMACH): 0.1583 | AUC (PRISM viability) (MKN74_STOMACH): 0.7438 | AUC (PRISM viability) (MOLM13_HAEMATOPOIETIC_AND_LYMPHOID_TISSUE): 0.4032 | AUC (PRISM viability) (MOLP2_HAEMATOPOIETIC_AND_LYMPHOID_TISSUE): 0.65 | AUC (PRISM viability) (MOLT16_HAEMATOPOIETIC_AND_LYMPHOID_TISSUE): 0.6383 | AUC (PRISM viability) (MONOMAC1_HAEMATOPOIETIC_AND_LYMPHOID_TISSUE): 0.7673 | AUC (PRISM viability) (MONOMAC6_HAEMATOPOIETIC_AND_LYMPHOID_TISSUE): 0.6964
